# Patent US5521156A, “Cyclic neurokinin A antagonists” (priority 1994, dated 1996)
# Where a SMILES comes first, the peptide text is derived from it. [ ]: non-standard residue; d: D form.
# Tests used:
# [1] = tested on: mice; details: mouse, in vivo
# Protocol: The analgesic potential of the compounds of this invention was measured using a modification of the method of Whittle (Br. J. Pharmacol. 22:2246, 1964). Groups of 5-10 male mice received an intrathecal injection of cyclo[Tyr-trp-Leu-Arg-Trp-Gly] SEQ. ID 6 (0.013-4μg) or ethanol/saline vehicle in a volume of 5 μl. After 5 minutes, mice received an intraperitoneal injection of 0.4 ml acetic acid (0.25% v/v). […] To calculate an ED50 (dose producing analgesia in 50% of the mice), four or more doses of compound were tested and the results subjected to quantal analysis with an appropriate computer program.
# [2] = target: T1, human jejunal NK-2 receptor (Homo sapiens, UniProt P21452); experiment: NK-2 receptor binding (125I-neurokinin A) in HSKR-1 cell membranes; details: HSKR-1 cells (mouse 3T3 fibroblasts expressing human jejunal NK-2 receptor); 0.1 nM 125I-iodohistidyl-1-neurokinin A; mean ± S.E.M.
# T1 construct: expressed in transfected cells; host or cells: HSKR-1 (mouse 3T3 fibroblasts)
# T1 sequence (P21452 1-398): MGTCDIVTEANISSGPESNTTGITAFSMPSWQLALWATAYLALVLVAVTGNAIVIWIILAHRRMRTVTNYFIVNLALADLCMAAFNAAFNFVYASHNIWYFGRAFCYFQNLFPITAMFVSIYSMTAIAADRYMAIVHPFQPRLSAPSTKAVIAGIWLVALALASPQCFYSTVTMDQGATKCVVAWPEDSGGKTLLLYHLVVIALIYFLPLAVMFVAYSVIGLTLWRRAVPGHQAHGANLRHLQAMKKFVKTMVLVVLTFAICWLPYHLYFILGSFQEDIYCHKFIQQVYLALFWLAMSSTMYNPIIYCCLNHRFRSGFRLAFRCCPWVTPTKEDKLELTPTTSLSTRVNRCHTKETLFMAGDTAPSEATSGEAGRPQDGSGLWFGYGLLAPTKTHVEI
# Protocol: Receptor binding assays were performed in crude tissue membranes. The NK-1 receptor binding affinity of proposed tachykinin antagonists was evaluated in guinea pig lungs (Keystone Biologicals, Cleveland, OH, kept frozen at -80° C. until use). Affinity for the NK-2 receptor was evaluated in HSKR-1 cells which are mouse 3T3 fibroblasts expressing the human jejunal NK-2 receptor. Tissues or cells were homogenized with a Polytron in 15 volumes of 50 mM Tris-HCl buffer (pH 7.4, 4° C.) containing 120 mM NaCl and 5 mM KCl and centrifuged at 48,000×g for 12 min. at 4° C. The pellet was resuspended in 15 volumes of 50 mM Tris-HCl buffer containing 10 mM EDTA and 300 mM KCl then set on ice for 30 min. The suspension was cetrifuged as above and the pellet washed by resuspension and cetrifugation two additional times in 50 mM Tris-HCl buffer (pH 7.4, 4° C.). The final pellet was resuspended in a concentration of 20 mg/ml in incubation buffer then kept at room temperature for at least 15 min prior to use. Receptor binding was initiated by addition of 250 μl membrane preparation (final protein concentration; lungs=286 μg/tube, HSKR-1 cells=100 μg/tube) in duplicate to 0.1 nM of the following radioligands: for NK-1 receptor assays, ^125 I-Bolton-Hunter Lys-3 labeled substance P (New England Nuclear, specific activity, 2200 Ci/mmol); for NK-2 receptor assays, ^125 iodohistidyl-1-neurokinin A (Amersham, specific activity, 2000 Ci/mmol) in a final volume of 500 μl of buffer containing 50 mM Tris-HCl (pH 7.4 at room temperature), 0.1% bovine serum albumin, 2 mM MnCl2, 40 μg/ml bacitracin, 4 μg/ml leupeptin and chymostatin, 1 μM thiorphan and various doses of the tachykinin antagonists. Incubations were performed at room temperature for 90 min (NK-1 receptor assays) or 2 hr (NK-2 receptor assays); binding was terminated by addition of 50 mM Tris-HCl buffer (pH 7.4, 4° C.) and filtration under vacuum through GF/B filters presoaked with 0.1% polyethyleneimine (NK-1 receptor assays) or 0.5% bovine serum albumin (NK-2 receptor assays). Nonspecific binding was defined as binding in the presence of 1 μM substance P (NK-1 receptor assays) or neurokinin A (NK-2 receptor assays) (Peptides International, Inc., Louisville, Ky.). Specific binding was calculated by subtracting nonspecific binding from total binding and corresponded to 70-90% of total binding. Data were analyzed and IC50 values generated by nonlinear regression using an iterative curve fitting program (GraphPAD Inplot, San Diego, Calif.). Protein was determined by the method of Lowry.
smiles,measurement,setting,value
"CC(C)C[C@@H]1NC(=O)[C@@H](Cc2c[nH]c3ccccc23)NC(=O)[C@H](Cc2ccc(O)cc2)NC(=O)CNC(=O)[C@H](Cc2c[nH]c3ccccc23)NC(=O)[C@H](CCCNC(=N)N)NC1=O [cyclo[Tyr--trp--Leu--Arg--Trp--Gly], cyclo[Tyr-trp-Leu-Arg-Trp-Gly]] (cyclo(GY[dW]LRW))",ED50 (dose producing analgesia in 50% of the mice),[1],0.18 µg
same,IC50,[2],6.79 ± 0.69 nM
